Entries after “also recorded” stand apart in the source; their conditions may differ.
Experiments:
[1] = molecular target: T1, scavenger receptor B1 (Mus musculus, UniProt Q61009); test: Clearance of infused human RBCs from peripheral blood of RGSKI mice after blocking scavenger receptor B1 (FIG. 4); type: in vivo; conditions: BLT-1 80 mg/kg body weight one hour before human RBC infusion, control DMSO
T1 construct: endogenous in cells; host or cells: RGSKI mice (whole animal, in vivo)
T1 sequence (Q61009 1-509): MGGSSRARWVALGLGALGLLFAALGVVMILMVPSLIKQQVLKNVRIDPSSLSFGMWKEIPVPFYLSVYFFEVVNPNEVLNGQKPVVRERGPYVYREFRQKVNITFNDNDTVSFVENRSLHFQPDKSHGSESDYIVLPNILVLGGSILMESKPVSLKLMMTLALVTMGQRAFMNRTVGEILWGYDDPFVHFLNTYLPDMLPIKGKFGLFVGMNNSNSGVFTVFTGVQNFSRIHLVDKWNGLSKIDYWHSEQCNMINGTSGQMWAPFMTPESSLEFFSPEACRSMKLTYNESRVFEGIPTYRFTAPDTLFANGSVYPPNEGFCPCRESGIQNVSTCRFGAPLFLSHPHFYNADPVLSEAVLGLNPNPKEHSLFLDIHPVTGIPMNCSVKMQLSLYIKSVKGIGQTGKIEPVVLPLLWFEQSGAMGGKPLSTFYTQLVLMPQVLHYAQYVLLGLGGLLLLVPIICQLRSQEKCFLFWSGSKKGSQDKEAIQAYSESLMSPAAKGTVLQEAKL
Procedure: RGSKI mice were treated with scavenger receptor B1 named BLT-1 (80 mg/kg body weight). One hour after treatment, mice were infused with human RBCs and peripheral blood was collected at indicated time points. Control: DMSO.

[2] = Navab et al., 2006; cited from earlier work
[3] = system: human RBCs; test: Clearance of infused human RBCs from peripheral blood of RGSKI mice after blocking macrophage receptors (FIG. 3); type: in vivo; conditions: RGSKI mice treated one hour before human RBC infusion, D-4F 10 mg/mouse, control PBS, peripheral blood by FACS
Procedure: D-4F blocks several scavenger receptors. RGSKI mice were treated with different antibodies or inhibitors to block various macrophage receptors. One hour after treatment, mice were infused with human RBCs and peripheral blood was collected at indicated time points. Anti-Dectin: 50 ug/mouse; Anti-CD169: 50 ug/mouse; Anti-CD169 clone 3D6: 100 ug/mice; Anti-Mannose receptor: 50 ug/mouse; D-4F: 10 mg/mouse; Asialofetuin: 10 mg/mouse; Control: PBS.
First, an experiment was conducted to examine the clearance of human red blood cells in mouse peripheral blood. Human and mouse red blood cells were pre-labeled with CFSE or violet dye, respectively, and then were transfused into RGSKI mice by retro-orbital injection. Peripheral blood was collected 5 minutes after blood infusion and the frequency of infused mouse or human RBCs was determined by FACS. It was observed that the frequency of infused human RBCs decreased more rapidly than mouse RBCs (FIG. 1B).
Experiments were then performed to evaluate the role of the scavenger receptor in RBC clearance. D-4F is an apolipoprotein A-I mimetic peptide and a general scavenger receptor inhibitor. D-4F is an 18 D-amino acid peptide (Ac-D-W-L-K-A-F-Y-D-K-V-A-E-K-L-K-E-A-F—NH2; SEQ ID NO: 2). […] Other pathways which might involve in the destruction of human RBCs in the periphery were also tested.

Compound	percent of remaining RBCs in the periphery after human RBC infusion [1]	cholesterol efflux, inflammation and atherosclerosis [2]	protection of infused human RBCs in the periphery [3]	protection of infused human RBCs in the periphery ([3]; listed as D4-F)
CCCCCCC1CCCC1=NNC(N)=S (stereo not shown) [BLT-1, 2-Hexyl-1-cyclopentanone thiosemicarbazone]	can protect infused human RBCs in the mouse system; also recorded: increases the percent of remaining RBCs in the periphery			
Ac-D-W-L-K-A-F-Y-D-K-V-A-E-K-L-K-E-A-F—NH2 (DWLKAFYDKVAEKLKEAF; HELM PEPTIDE1{[ac].[dD].[dW].[dL].[dK].[dA].[dF].[dY].[dD].[dK].[dV].[dA].[dE].[dK].[dL].[dK].[dE].[dA].[dF].[am]}$$$$V2.0; SMILES CC(=O)N[C@H](CC(=O)O)C(=O)N[C@H](Cc1c[nH]c2ccccc12)C(=O)N[C@H](CC(C)C)C(=O)N[C@H](CCCCN)C(=O)N[C@H](C)C(=O)N[C@H](Cc1ccccc1)C(=O)N[C@H](Cc1ccc(O)cc1)C(=O)N[C@H](CC(=O)O)C(=O)N[C@H](CCCCN)C(=O)N[C@@H](C(=O)N[C@H](C)C(=O)N[C@H](CCC(=O)O)C(=O)N[C@H](CCCCN)C(=O)N[C@H](CC(C)C)C(=O)N[C@H](CCCCN)C(=O)N[C@H](CCC(=O)O)C(=O)N[C@H](C)C(=O)N[C@H](Cc1ccccc1)C(N)=O)C(C)C) [D-4F]		increase cholesterol efflux and reduce inflammation and atherosclerosis	blocks in vivo destruction of human RBCs	protected infused human RBCs in the periphery

Reference: patent US20170274001A1, “Compositions and Methods for Increasing Red Blood Cells” (Yale University, priority 2014, published 2017)
